In patent publication US20260297085A1, “1 H-PYRROLO[2,3-B]PYRIDIN-4-YL]-2-OXOPYRROLIDINE-3-CARBONITRILE DERIVATIVES AS TYROSINE KINASE 2 (TYK2) INHIBITORS FOR THE TREATMENT OF INFLAMMATORY DISEASES” (BIOGEN MA INC., priority 2023, published 2026):
Where a name gives a salt, the structure may show the parent alone.

How the values were obtained:
[1] = target: T1, human TYK2 kinase domain (JH1) (Homo sapiens, UniProt P29597); test: JH1 biochemical assay for TYK2 (ADP-Glo kinase assay, recombinant JH1 catalytic domain, JAK3-974 peptide, 10 μM ATP)
T1 construct: recombinantly generated catalytic kinase (also known as JH1) domain of human JAK1, JAK2, JAK3 and TYK2
T1 sequence (P29597 897-1176 limits assumed): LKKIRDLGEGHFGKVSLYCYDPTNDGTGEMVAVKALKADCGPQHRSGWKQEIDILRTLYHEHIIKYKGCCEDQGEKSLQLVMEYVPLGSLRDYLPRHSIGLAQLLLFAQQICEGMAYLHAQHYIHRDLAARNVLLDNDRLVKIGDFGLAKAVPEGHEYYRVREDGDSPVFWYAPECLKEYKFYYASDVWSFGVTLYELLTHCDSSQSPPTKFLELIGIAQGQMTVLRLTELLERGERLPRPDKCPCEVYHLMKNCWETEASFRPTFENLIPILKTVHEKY
Summary of the method: (§1)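 ADP-Glo luminescence with 50 μM peptide and 100 min reactions: JAK1 4 nM with JAK3-342 peptide; JAK2, JAK3 and TYK2 at 0.2, 0.3 and 2 nM with JAK3-974 peptide. Compounds tested from 10 or 1 μM top, 11 points, 3-fold. IC50 from a 4-parameter logistic fit of normalized activity.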

[2] = target: T2, human JAK1 kinase domain (JH1) (Homo sapiens, UniProt P23458); test: JH1 biochemical assay for JAK1 (ADP-Glo kinase assay, recombinant JH1 catalytic domain, JAK3-342 peptide, 35 μM ATP)
T2 construct: recombinantly generated catalytic kinase (also known as JH1) domain of human JAK1, JAK2, JAK3 and TYK2
Summary of the method: as §1

[3] = target: T3, human JAK2 kinase domain (JH1) (Homo sapiens, UniProt O60674); test: JH1 biochemical assay for JAK2 (ADP-Glo kinase assay, recombinant JH1 catalytic domain, JAK3-974 peptide, 15 μM ATP)
T3 construct: recombinantly generated catalytic kinase (also known as JH1) domain of human JAK1, JAK2, JAK3 and TYK2
Summary of the method: as §1

[4] = target: T4, human JAK3 kinase domain (JH1) (Homo sapiens, UniProt P52333); test: JH1 biochemical assay for JAK3 (ADP-Glo kinase assay, recombinant JH1 catalytic domain, JAK3-974 peptide, 4 μM ATP)
T4 construct: recombinantly generated catalytic kinase (also known as JH1) domain of human JAK1, JAK2, JAK3 and TYK2
Summary of the method: as §1

[5] = target: Tyk2 kinase activity on STAT4 in NK92 cells (Homo sapiens, UniProt P29597); test: pSTAT4 cell assay (MSD; NK92 cells, 30 ng/mL IL2 stimulation); assay type: cell-based; details: 30 ng/mL IL2, 15 minutes
Summary of the method: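 IC50 values come from 4-parameter logistic fits of normalized percent activity. Phospho-STAT was read by MSD (anti-STAT4 antibodies) in NK92 lysates after a 15 min stimulation with 30 ng/mL IL2. The serum-starved cells had been given compound for 1 h (10 points, four-fold, top 10 μM).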

[6] = target: JAK2 kinase activity on STAT5 in TF1 cells (Homo sapiens, UniProt O60674); test: pSTAT5 cell assay (MSD; TF1 cells, 30 ng/mL IL-3 stimulation); assay type: cell-based; details: 30 ng/mL IL-3, 15 minutes
Summary of the method: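 IC50 from a 4-parameter logistic fit of normalized pSTAT5 signal, measured by MSD in lysates of TF1 cells. Cells were serum-starved, exposed to compound for 1 h (top concentration 10 μM, four-fold, 10 points), then given IL-3 at 30 ng/mL for 15 min.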

[7] = target: JAK1 kinase activity on STAT3 in TF1 cells (Homo sapiens, UniProt P23458); test: pSTAT3 cell assay (MSD; TF1 cells, 30 ng/mL IL-6 stimulation); assay type: cell-based; details: 30 ng/mL IL-6, 15 minutes
Summary of the method: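 IC50 values reflect 4-parameter logistic fits of normalized pSTAT3 signal, measured by MSD in lysed TF1 cells. Cells were serum-starved and treated with compound for 1 h (top concentration 10 μM) before a 15 min IL-6 challenge.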

T2 sequence (P23458 875-1153 limits assumed): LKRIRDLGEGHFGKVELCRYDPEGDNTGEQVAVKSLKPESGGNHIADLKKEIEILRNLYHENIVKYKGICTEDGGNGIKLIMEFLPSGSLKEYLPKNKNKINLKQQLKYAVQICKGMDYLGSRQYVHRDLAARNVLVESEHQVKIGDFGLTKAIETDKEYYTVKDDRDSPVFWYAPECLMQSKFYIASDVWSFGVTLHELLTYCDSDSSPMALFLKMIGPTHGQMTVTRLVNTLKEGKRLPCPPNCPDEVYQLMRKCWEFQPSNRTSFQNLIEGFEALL
T4 sequence (P52333 822-1111 limits assumed): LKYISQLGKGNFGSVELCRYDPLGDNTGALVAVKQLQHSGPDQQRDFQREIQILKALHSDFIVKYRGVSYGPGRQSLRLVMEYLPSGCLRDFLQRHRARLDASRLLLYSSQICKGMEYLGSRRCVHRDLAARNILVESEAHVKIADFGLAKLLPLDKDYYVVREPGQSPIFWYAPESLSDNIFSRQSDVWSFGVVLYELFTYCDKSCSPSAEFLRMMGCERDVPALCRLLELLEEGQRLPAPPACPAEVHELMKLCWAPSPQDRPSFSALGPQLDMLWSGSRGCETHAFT
Sequence of JAK2 kinase activity on STAT5 in TF1 cells (O60674 whole entry): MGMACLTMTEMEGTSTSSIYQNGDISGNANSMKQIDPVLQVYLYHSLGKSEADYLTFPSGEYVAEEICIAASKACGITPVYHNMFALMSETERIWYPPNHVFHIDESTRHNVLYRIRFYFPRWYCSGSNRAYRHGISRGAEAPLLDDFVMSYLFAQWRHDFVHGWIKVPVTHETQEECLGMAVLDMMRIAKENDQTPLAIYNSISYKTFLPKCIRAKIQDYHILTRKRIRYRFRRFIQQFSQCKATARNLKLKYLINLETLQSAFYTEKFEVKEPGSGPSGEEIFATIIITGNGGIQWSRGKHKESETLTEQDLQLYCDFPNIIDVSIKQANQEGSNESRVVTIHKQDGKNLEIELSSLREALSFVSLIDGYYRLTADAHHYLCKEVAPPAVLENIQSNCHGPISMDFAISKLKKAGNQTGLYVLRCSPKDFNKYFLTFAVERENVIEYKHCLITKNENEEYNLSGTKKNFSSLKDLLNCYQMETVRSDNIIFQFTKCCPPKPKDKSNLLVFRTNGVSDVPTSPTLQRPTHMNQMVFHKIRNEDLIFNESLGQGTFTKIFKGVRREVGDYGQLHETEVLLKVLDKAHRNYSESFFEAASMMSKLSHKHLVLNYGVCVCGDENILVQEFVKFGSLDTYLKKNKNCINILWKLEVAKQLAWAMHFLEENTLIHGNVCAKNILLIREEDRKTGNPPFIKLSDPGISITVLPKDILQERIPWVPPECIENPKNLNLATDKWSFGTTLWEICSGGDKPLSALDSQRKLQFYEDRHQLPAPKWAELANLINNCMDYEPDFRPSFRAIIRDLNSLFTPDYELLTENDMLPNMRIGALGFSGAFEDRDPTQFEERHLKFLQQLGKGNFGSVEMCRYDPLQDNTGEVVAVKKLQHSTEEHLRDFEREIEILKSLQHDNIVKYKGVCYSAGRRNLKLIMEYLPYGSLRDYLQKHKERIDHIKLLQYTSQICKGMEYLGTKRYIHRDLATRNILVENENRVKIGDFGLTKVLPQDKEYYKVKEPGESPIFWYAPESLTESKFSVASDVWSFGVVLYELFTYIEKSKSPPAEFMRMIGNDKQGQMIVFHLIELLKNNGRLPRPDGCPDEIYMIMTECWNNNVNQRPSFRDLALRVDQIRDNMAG
Sequence of Tyk2 kinase activity on STAT4 in NK92 cells (P29597 whole entry): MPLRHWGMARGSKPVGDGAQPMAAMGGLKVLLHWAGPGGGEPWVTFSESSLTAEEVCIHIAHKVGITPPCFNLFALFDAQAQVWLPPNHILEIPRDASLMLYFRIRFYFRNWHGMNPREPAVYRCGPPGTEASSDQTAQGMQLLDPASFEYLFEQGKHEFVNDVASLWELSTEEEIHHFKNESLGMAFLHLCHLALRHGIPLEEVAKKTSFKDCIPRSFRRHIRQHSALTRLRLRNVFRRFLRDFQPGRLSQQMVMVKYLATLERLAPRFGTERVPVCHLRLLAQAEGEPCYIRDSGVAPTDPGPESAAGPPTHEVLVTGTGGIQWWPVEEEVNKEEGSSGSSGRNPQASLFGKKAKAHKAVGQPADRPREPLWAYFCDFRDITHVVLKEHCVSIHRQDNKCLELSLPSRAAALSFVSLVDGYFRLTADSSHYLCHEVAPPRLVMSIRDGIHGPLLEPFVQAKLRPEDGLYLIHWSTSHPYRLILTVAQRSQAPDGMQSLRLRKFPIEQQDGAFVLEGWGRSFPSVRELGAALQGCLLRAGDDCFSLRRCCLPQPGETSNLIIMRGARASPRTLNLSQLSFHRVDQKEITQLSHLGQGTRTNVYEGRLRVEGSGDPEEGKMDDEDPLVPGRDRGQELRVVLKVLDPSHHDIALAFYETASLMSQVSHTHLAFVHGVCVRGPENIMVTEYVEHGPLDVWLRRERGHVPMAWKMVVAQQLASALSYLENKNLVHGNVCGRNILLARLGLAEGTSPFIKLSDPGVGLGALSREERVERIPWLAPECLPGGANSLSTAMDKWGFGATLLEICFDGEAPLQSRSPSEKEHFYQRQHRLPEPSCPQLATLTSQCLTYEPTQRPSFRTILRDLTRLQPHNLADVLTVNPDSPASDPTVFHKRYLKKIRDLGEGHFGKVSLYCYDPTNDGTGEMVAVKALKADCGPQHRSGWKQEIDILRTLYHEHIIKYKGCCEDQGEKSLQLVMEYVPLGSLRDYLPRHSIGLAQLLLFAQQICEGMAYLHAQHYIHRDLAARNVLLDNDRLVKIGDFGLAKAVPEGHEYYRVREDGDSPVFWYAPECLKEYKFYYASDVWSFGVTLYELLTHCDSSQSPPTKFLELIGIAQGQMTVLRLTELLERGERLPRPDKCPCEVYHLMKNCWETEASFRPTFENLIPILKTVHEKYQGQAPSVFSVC
T3 sequence (O60674 849-1124 limits assumed): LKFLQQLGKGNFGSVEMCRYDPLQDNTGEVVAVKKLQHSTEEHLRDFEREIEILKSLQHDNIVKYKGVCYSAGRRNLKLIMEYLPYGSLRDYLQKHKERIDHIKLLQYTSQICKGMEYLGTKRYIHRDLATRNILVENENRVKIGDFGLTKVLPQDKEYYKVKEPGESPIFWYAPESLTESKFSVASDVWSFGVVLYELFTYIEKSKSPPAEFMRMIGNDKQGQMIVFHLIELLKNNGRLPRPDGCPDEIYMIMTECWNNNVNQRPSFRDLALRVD
Sequence of JAK1 kinase activity on STAT3 in TF1 cells (P23458 whole entry): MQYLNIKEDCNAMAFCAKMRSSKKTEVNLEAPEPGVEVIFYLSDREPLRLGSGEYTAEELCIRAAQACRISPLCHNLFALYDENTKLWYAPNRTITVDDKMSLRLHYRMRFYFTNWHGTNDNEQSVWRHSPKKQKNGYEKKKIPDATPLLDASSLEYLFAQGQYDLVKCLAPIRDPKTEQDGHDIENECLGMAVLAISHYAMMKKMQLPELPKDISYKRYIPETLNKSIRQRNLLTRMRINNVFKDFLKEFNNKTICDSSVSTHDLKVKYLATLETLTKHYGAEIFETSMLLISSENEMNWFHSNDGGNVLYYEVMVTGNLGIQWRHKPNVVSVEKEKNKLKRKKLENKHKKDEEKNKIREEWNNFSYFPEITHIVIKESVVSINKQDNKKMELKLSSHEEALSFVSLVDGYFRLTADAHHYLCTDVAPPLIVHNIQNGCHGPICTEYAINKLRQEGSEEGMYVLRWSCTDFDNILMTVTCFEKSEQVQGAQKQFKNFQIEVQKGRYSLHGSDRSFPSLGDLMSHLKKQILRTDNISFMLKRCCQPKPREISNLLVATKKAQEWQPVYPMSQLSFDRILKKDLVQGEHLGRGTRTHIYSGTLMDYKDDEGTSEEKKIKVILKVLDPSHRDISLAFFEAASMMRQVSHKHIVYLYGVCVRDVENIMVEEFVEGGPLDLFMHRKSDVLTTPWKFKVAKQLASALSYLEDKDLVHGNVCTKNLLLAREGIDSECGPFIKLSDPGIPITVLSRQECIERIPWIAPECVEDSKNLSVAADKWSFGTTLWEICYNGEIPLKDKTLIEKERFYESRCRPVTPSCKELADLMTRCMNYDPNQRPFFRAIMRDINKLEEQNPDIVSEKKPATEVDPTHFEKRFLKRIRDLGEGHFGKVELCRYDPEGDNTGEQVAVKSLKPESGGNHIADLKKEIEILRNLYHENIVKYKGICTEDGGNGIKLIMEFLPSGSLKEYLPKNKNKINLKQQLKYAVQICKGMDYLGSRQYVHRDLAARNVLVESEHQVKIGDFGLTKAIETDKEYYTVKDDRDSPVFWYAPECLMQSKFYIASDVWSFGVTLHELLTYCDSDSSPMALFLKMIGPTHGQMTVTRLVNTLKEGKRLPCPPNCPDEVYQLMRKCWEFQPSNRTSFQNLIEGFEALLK

## Cc1nn(C)cc1-c1cn2nccc2c(N2C[C@@H](C)[C@@](C#N)(C3CC3)C2=O)n1 [Example 208, (3R,4S)-3-cyclopropyl-1-(6-(1,3-dimethyl-1H-pyrazol-4-yl)pyrazolo[1,5-a]pyrazin-4-yl)-4-methyl-2-oxopyrrolidine-3-carbonitrile]
[1]; JH1 kinase domain, ADP-Glo
  IC50: < 5 nM
[2]; JH1 kinase domain, ADP-Glo
  IC50: < 100 nM
[3]; JH1 kinase domain, ADP-Glo
  IC50: < 100 nM
[4]; JH1 kinase domain, ADP-Glo
  IC50: < 100 nM
[5]
  IC50: 50 to 100 nM
[6]
  IC50: 1000 to 5000 nM
[7]
  IC50: 1000 to 5000 nM

## C[C@@H]1CN(c2nc(-c3cnn(CC(F)F)c3)cc3ncsc23)C(=O)[C@]1(C#N)C1CC1 [Example 354, (3R,4S)-3-cyclopropyl-1-(6-(1-(2,2-difluoroethyl)-1H-pyrazol-4-yl)thiazolo[5,4-c]pyridin-4-yl)-4-methyl-2-oxopyrrolidine-3-carbonitrile]
[1]; TYK2 JH1, ADP-Glo
  IC50: < 5 nM
[2]; JAK1 JH1, ADP-Glo
  IC50: < 100 nM
[3]; JAK2 JH1, ADP-Glo
  IC50: < 100 nM
[4]; JAK3 JH1, ADP-Glo
  IC50: < 100 nM
[5]
  IC50: 20 to 50 nM
[6]
  IC50: < 100 nM
[7]
  IC50: < 100 nM

## C[C@@H]1CN(c2ccnn3cc(-c4cncc(O)c4)cc23)C(=O)[C@]1(C#N)C1CC1 [Example 53, (3R,4S)-3-cyclopropyl-1-(6-(5-hydroxypyridin-3-yl)pyrrolo[1,2-b]pyridazin-4-yl)-4-methyl-2-oxopyrrolidine-3-carbonitrile]
[1]; JH1 kinase domain, ADP-Glo
  IC50: 5 to 20 nM
[2]; JH1 kinase domain, ADP-Glo
  IC50: 100 to 1000 nM
[3]; JH1 kinase domain, ADP-Glo
  IC50: 100 to 1000 nM
[4]; JH1 kinase domain, ADP-Glo
  IC50: 100 to 1000 nM
[5]
  IC50: > 100 nM
[6]
  IC50: > 10000 nM
[7]
  IC50: 5000 to 10000 nM

## Cc1cc(-c2cc3c(N4C[C@@H](C)[C@@](C#N)(C5CC5)C4=O)ccnn3c2)ccn1 [Example 77, (3R,4S)-3-cyclopropyl-4-methyl-1-(6-(2-methylpyridin-4-yl)pyrrolo[1,2-b]pyridazin-4-yl)-2-oxopyrrolidine-3-carbonitrile]
[1]; JH1 kinase domain, ADP-Glo
  IC50: < 5 nM
[2]; JH1 kinase domain, ADP-Glo
  IC50: < 100 nM
[3]; JH1 kinase domain, ADP-Glo
  IC50: 100 to 1000 nM
[4]; JH1 kinase domain, ADP-Glo
  IC50: 100 to 1000 nM
[5]
  IC50: 50 to 100 nM
[6]
  IC50: 1000 to 5000 nM
[7]
  IC50: 100 to 1000 nM

## C[C@@H]1CN(c2ccnc3cc(-c4cnn(C56CC(C5)C6)c4)oc23)C(=O)[C@]1(C#N)C1CC1 [Example 344, (3R,4S)-1-(2-(1-(bicyclo[1.1.1]pentan-1-yl)-1H-pyrazol-4-yl)furo[3,2-b]pyridin-7-yl)-3-cyclopropyl-4-methyl-2-oxopyrrolidine-3-carbonitrile]
[1]; TYK2 JH1, ADP-Glo
  IC50: < 5 nM
[2]; JAK1 JH1, ADP-Glo
  IC50: 100 to 1000 nM
[3]; JAK2 JH1, ADP-Glo
  IC50: 100 to 1000 nM
[4]; JAK3 JH1, ADP-Glo
  IC50: < 100 nM
[5]
  IC50: > 100 nM
[6]
  IC50: 1000 to 5000 nM
[7]
  IC50: 100 to 1000 nM

## C[C@@H]1CN(c2ccnn3cc(-c4cnn([C@H]5COCC(F)(F)C5)c4)cc23)C(=O)[C@]1(C#N)C1CC1 (single isomer, unassigned) [Example 327]
[1]; TYK2 JH1, ADP-Glo
  IC50: < 5 nM
[2]; JAK1 JH1, ADP-Glo
  IC50: < 100 nM
[3]; JAK2 JH1, ADP-Glo
  IC50: < 100 nM
[4]; JAK3 JH1, ADP-Glo
  IC50: < 100 nM
[5]
  IC50: 50 to 100 nM
[6]
  IC50: 100 to 1000 nM
[7]
  IC50: 1000 to 5000 nM

## CC(C)n1cc(-c2cn3ncc(F)c3c(N3C[C@@H](C)[C@@](C#N)(C4CC4)C3=O)n2)cn1 [Example 190, (3R,4S)-3-cyclopropyl-1-(3-fluoro-6-(1-isopropyl-1H-pyrazol-4-yl)pyrazolo[1,5-a]pyrazin-4-yl)-4-methyl-2-oxopyrrolidine-3-carbonitrile]
[1]; JH1 kinase domain, ADP-Glo
  IC50: < 5 nM
[2]; JH1 kinase domain, ADP-Glo
  IC50: < 100 nM
[3]; JH1 kinase domain, ADP-Glo
  IC50: < 100 nM
[4]; JH1 kinase domain, ADP-Glo
  IC50: < 100 nM
[5]
  IC50: 20 to 50 nM
[6]
  IC50: 1000 to 5000 nM
[7]
  IC50: 100 to 1000 nM

## C[C@@H]1CN(c2nn(-c3cnn(C)c3)c3cnccc23)C(=O)[C@]1(C#N)C1CC1 [Example 275, (3R,4S)-3-cyclopropyl-4-methyl-1-(1-(1-methyl-1H-pyrazol-4-yl)-1H-pyrazolo[3,4-c]pyridin-3-yl)-2-oxopyrrolidine-3-carbonitrile]
[1]; TYK2 JH1, ADP-Glo
  IC50: 5 to 20 nM
[2]; JAK1 JH1, ADP-Glo
  IC50: 100 to 1000 nM
[3]; JAK2 JH1, ADP-Glo
  IC50: 1000 to 5000 nM
[4]; JAK3 JH1, ADP-Glo
  IC50: 100 to 1000 nM
[5]
  IC50: > 100 nM
[6]
  IC50: > 10000 nM
[7]
  IC50: 5000 to 10000 nM

## C[C@@H]1CN(c2nn(-c3cnn(C4COC4)c3)c3cnccc23)C(=O)[C@]1(C#N)C1CC1 [Example 278, (3R,4S)-3-cyclopropyl-4-methyl-1-(1-(1-(oxetan-3-yl)-1H-pyrazol-4-yl)-1H-pyrazolo[3,4-c]pyridin-3-yl)-2-oxopyrrolidine-3-carbonitrile]
[1]; TYK2 JH1, ADP-Glo
  IC50: < 5 nM
[2]; JAK1 JH1, ADP-Glo
  IC50: 100 to 1000 nM
[3]; JAK2 JH1, ADP-Glo
  IC50: 100 to 1000 nM
[4]; JAK3 JH1, ADP-Glo
  IC50: 100 to 1000 nM
[5]
  IC50: > 100 nM
[6]
  IC50: 5000 to 10000 nM
[7]
  IC50: 5000 to 10000 nM

## C[C@@H]1CN(c2nc(-c3cnc(N(C)C)nc3)cn3nccc23)C(=O)[C@]1(C#N)C1CC1 [Example 264, (3R,4S)-3-cyclopropyl-1-(6-(2-(dimethylamino)pyrimidin-5-yl)pyrazolo[1,5-a]pyrazin-4-yl)-4-methyl-2-oxopyrrolidine-3-carbonitrile trifluoroacetate]
[1]; TYK2 JH1, ADP-Glo
  IC50: 5 to 20 nM
[2]; JAK1 JH1, ADP-Glo
  IC50: 100 to 1000 nM
[3]; JAK2 JH1, ADP-Glo
  IC50: 1000 to 5000 nM
[4]; JAK3 JH1, ADP-Glo
  IC50: 100 to 1000 nM
[5]
  IC50: 50 to 100 nM
[6]
  IC50: > 10000 nM
[7]
  IC50: > 10000 nM
